Source: patent publication US11806343B2, “Inhibitors of DUX4 induction for regulation of muscle function” (Sonic Master Limited, priority 2017, dated 2023)
Where “and” joins values, the source holds several entries; their conditions need not be identical. Equal entries are not always repeated.

Legend:
[1] = tested on: DUX4; experiment: DUX4 expression downregulation by kinase family inhibitors (Table 1); format: cell-based; conditions: for EC50: DUX4 reduction; for Quantitation % of DUX4 reduction @the lowest significant [C]: at the lowest significant concentration; for lowest significant [C]: concentration in brackets at which the % DUX4 reduction is given
[2] = tested on: DUX4; experiment: FSHD hESC-SkM immunocytochemistry, DUX4 expression; format: cell-based, human; conditions: Genea049 hESC-SkM
Method: (§1) FIG. 6 provides an example of a screening and culturing workflow for hESC-SkM assays. At Day 0, hESC-derived myoblasts are thawed into a 96-well plate in myoblast medium (Genea BioCells). On Day 2, the medium is replaced with new myoblast medium containing 1.15 μM. Decitabine. […] On Day 7, the myotubes are analyzed. For example, the myotubes may be analyzed for MHC expression or DUX4 expression.
(§2) Genea049 FSHD-affected human Embryonic Stem Cells (hESCs) were differentiated using Genea's myogenic differentiation protocol (Caron et 2015) to the myoblast stage and cryopreserved. Frozen myoblasts were resuscitated and 4500 cells were plated into each well of a 96-well collagen I coated tissue culture plate in myoblast medium. After two days of cell growth medium was changed to 100 μL per well myoblast medium containing 1.15 μM Decitabine. […] Cells were allowed to differentiate to myotubes for four additional days then were fixed and analyzed for quantification of DUX4 expression, Myosin Heavy Chain expression, and nuclei number. Triplicate wells of each condition were averaged.
as §2, with “et al.,” for “et”, “number by high-content imaging.” for “number.”

[3] = tested on: Genea049 FSHD hESC-SkM; experiment: FSHD hESC-SkM immunocytochemistry, Myosin Heavy Chain and nuclei (myogenic inhibition/toxicity); format: cell-based, human
Method: as §1, §2
as §2, with “et al.,” for “et”, “number by high-content imaging.” for “number.”

Row | EC50 [1] | Structure (SMILES) | Quantitation % of DUX4 reduction @the lowest significant [C] [1] | lowest significant [C] [1] [µM] | DUX4 expression ([2]; 100 nM, four days of culture during myotube formation) | DUX4 expression, dose curve ([2]; six concentration points 10 nM-3 μM, four days) | Myosin Heavy Chain expression and nuclei count, dose curve ([3]; 10 nM-3 μM, four days) | Myosin Heavy Chain expression and nuclei count ([3]; 100 nM, four days of culture)
1 | 132 nM | Cc1ccc(NC(=O)c2ccc(CN3CC[C@H](N(C)C)C3)c(C(F)(F)F)c2)cc1Nc1nccc(-c2cncnc2)n1 [Bafetinib] | 67.90% | 2.08 | – | – | – | –
2 | – | COc1cc(Nc2c(C#N)cnc3cc(OCCCN4CCN(C)CC4)c(OC)cc23)c(Cl)cc1Cl [Bosutinib] | 70.58% | 3 | – | – | – | –
3 | 82 nM | Cc1ncc(NC(=O)c2ccc(CN3CCN(C)CC3)c(C(F)(F)F)c2)cc1Nc1nccc(-c2cccnc2)n1 [Flumatinib] | 76.09% | 2.08 | – | – | – | –
4 | – | NS(=O)(=O)OC[C@@H]1C[C@@H](n2ccc3c(N[C@H]4CCc5ccccc54)ncnc32)C[C@@H]1O [GBC0772, MLN4924] | – | – | decreased DUX4 expression | dose-dependent decreased DUX4 expression | decreased Myosin Heavy Chain expression and nuclei count | decreased Myosin Heavy Chain expression and nuclei count
5 | – | Cc1ccc(NC(=O)c2ccc(CN3CCN(C)CC3)cc2)cc1Nc1nccc(-c2cccnc2)n1 [Imatinib] | 61.13% | – | – | – | – | –
6 | 175 nM | Cc1ccc(NC(=O)c2ccc(CN3CC[C@H](N(C)C)C3)c(C(F)(F)F)c2)cc1Nc1ncc(-c2cncnc2)cn1 [Lyn-IN-1] | 70.73% | 0.88 | – | – | – | –
7 | – | Cc1cn(-c2cc(NC(=O)c3ccc(C)c(Nc4nccc(-c5cccnc5)n4)c3)cc(C(F)(F)F)c2)cn1 [Nilotinib] | 76.71% | 5 | – | – | – | –
8 | 153 nM and 287 nM | CC(C)(C)n1nc(-c2ccc(Cl)cc2)c2c(N)ncnc21 [PP2] | 41.77% and 66.61% | – | – | – | – | –
